# From US10800816B2 (Baxalta GmbH, priority 2012, dated 2020)
# *1 amine or outer side, *2 acyl side, *3 side chain or, on linkers, in order; H or OH if unused. Where a SMILES comes first, the peptide text is derived from it. Side-chain parts run from the residue outwards. [ ]: non-standard residue; d: D form. The star is where a group is joined. TTDA(Palmitoyl) = CCCCCCCCCCCCCCCC(=O)NCCCOCCOCCOCCCN*; Succinimide(1-Et,3-yl) = CCN1C(=O)CC(*)C1=O; Suc = O=C(CCC(=O)[*:2])[*:1]; Tle = CC(C)(C)[C@H](N)C(=O)O; Hexanoyl = CCCCCC(=O)*; Aib = CC(C)(N)C(=O)O; Acm = CC(=O)NC*
# Legend:
# [1] = FIGURE 78J
# Source text: Table printed on a drawing sheet, FIGURE 78J
# First reader's note: Part of a table series (FIGS. 78A-78AA); single-measurement columns hold several replicate values per cell, joined by blanks, next to the mean column (the first INHIBITION [%] column holds the mean).
# [2] = tested on: FVIII-inhibited whole blood; experiment: Rotation thromboelastography (ROTEM) in whole blood; design: species or system human; conditions: for coagulation parameters: Hem A / FVIII-inhibited human whole blood; for EC50: FVIII-inhibited, read-out: EC50, global hemostatic parameters
# Protocol: Continuous visco-elastic assessment of human whole blood clot formation and firmness was performed by rotation thromboelastography with whole blood preparations in the presence or absence of peptides. […] Test samples were prepared by dissolving quantities of peptides in either DMSO or HEPES buffered saline (with or without 0.1% Tween 80).
# Recordings were made using a ROTEM thromboelastography coagulation analyzer (Pentapharm, Munich, Germany) at 37° C. Briefly, blood is added into a disposable cuvette in a heated cuvette holder. A disposable pin (sensor) is fixed on the tip of a rotating axis. The axis is guided by a high precision ball bearing system and rotates back and forth. The axis is connected with a spring for the measurement of elasticity. The exact position of the axis is detected by the reflection of light on a small mirror on the axis. The loss of elasticity when the sample clots leads to a change in the rotation of the axis. The data obtained are computer analyzed and visualized in a thromboelastogram. […] An elasticity of approximately zero is observed before clot formation begins. Mirror image traces above and below the zero line indicate the effect of clot formation on the rotation of the axis.
# The analytical set-up was as follows: to 20 μL of test sample or control, 300 μL of pre-warmed (37° C.) CTI treated citrated whole blood was added, followed by 20 μL of a 1:15 dilution of TF PRP reagent containing recombinant human tissue factor (rTF, 3 pM) (TS40, Thrombinoscope BV, Maastricht, The Netherlands). Coagulation was initiated by the addition of 20 μ200 mM CaCl2 (star-TEM®, Pentapharm, Munich, Germany) and recordings were allowed to proceed for at least 120 min. The final concentration of rTF in the assay was 11 or 44 fM.
# The thromboelastographic parameters of clotting time (CT), clot formation time (CFT) and maximum clot firmness (MCF) were recorded in accordance with the manufacturer's instructions. CT is defined as the time from the start of measurement to the start of clot formation. CFT is defined as the time from the start of clot formation until an amplitude of 20 mm is reached. MCF is the maximum difference in amplitude between the two traces during the assay. The first derivative of the data of the thromboelastogram are plotted to obtain a graph of velocity (mm/s) against time (s). From this graph, the maximum velocity (maxV) is determined. The time at which the maximum velocity is obtained (maxV-t) is also determined.
# This example describes a method for assessing clot formation in whole blood using rotation thromboelastography (ROTEM). The assay was performed as described in Example 8. The analytical set-up was as follows: 300 μL of pre-warmed (37° C.) CTI treated citrated whole blood was added to a peptide sample (10, 100, 1000 nM final assay concentration) or a control, followed by addition of a 1:15 dilution of TF PRP reagent containing recombinant human tissue factor (rTF, 3 pM) (TS40, Thrombinoscope BV, Maastricht, The Netherlands). In certain experiments, exogenous full length TFPI (flTFPI) at final concentrations of 2 or 10 nM was added to simulate flTFPI plasma levels of up to 50-fold over normal. Coagulation was initiated by the addition of 20 μL 200 mM CaCl2 (star-TEM®, Pentapharm, Munich, Germany) and recordings were allowed to proceed for at least 120 min. The final concentration of rTF in the assay was 44 fM. The thromboelastographic parameters of clotting time (CT), clot formation time (CFT) and maximum clot firmness (MCF) were recorded in accordance with the manufacturer's instructions. CT is defined as the time from the start of measurement to the start of clot formation. CFT is defined as the time from the start of clot formation until an amplitude of 20 mm is reached. MCF is the maximum difference in amplitude between the two traces during the assay.
# [3] = FIGURE 78AA
# Source text: Table printed on a drawing sheet, FIGURE 78AA
# First reader's note: Continued from the previous sheet: the first body row (73.35) belongs to a compound listed there; cells with several numbers hold the single replicate values behind the mean.
# [4] = tested on: TFPI; experiment: Progress Curves of Inhibition of FXa | % Inhibit (2.5μM)
# Protocol: Head of the field: Progress Curves of Inhibition of FXa | % Inhibit (2.5μM)
# [5] = tested on: TFPI; experiment: IC50 ELISA | Mean IC50 [nM]
# Source text: Table printed on a drawing sheet, FIGURE 78Z
# Head of the field: IC50 ELISA | Mean IC50 [nM]
# First copying reader's note: Continued table: the first body row (45.67) belongs to a compound on the preceding sheet, the last row probably continues on the next sheet, and cells with several values list single replicates.
# [6] = FIGURE 78Z
# [7] = FIGURE 78K
# Source text: Table printed on a drawing sheet, FIGURE 78K
molecule,measurement,setting,value
CCN1C(=O)CC(SC[C@H](NC(=O)[C@H](CC(C)C)NC(=O)[C@H](CCCCN)NC(=O)[C@H](C)NC(=O)C(C)(C)NC(=O)[C@H](CC(C)C)NC(=O)[C@H](CCCNC(=N)N)NC(=O)[C@H](CCC(=O)O)NC(=O)[C@H](Cc2ccccc2)NC(=O)[C@H](Cc2ccc(O)cc2)NC(=O)CNC(=O)[C@H](CC(=O)O)NC(=O)[C@@H](NC(=O)[C@H](Cc2c[nH]cn2)NC(=O)[C@@H](NC(=O)[C@H](CC(N)=O)NC(=O)[C@H]2CCCN2C(=O)[C@H](CCCCN)NC(=O)[C@H](CO)NC(=O)[C@H](CCC(N)=O)NC(=O)[C@H](Cc2ccccc2)NC(C)=O)C(C)C)C(C)C)C(N)=O)C1=O (some centres unmarked) [JBT2317],24 h Human Plasma Stability | Mean Remaining [%],[1],23.77%
same,24 h Mouse Plasma Stability | Mean Remaining [%],[1],15.95%
same,coagulation parameters,[2],restored coagulation parameters in Hem A blood
Ac-FQSKpNVHVDGYFERL-Aib-AKLC(ME-120MA)-NH2 [JBT00002326],24 h Human Plasma Stability | Mean Remaining [%],[1],58.70%
same,24 h Mouse Plasma Stability | Mean Remaining [%],[1],57.20%
"CCCCCC(=O)N[C@@H](Cc1ccccc1)C(=O)N[C@@H](CCC(N)=O)C(=O)N[C@@H](CO)C(=O)N[C@@H](CCCCN)C(=O)N1CCC[C@@H]1C(=O)N[C@@H](CO)C(=O)N[C@H](C(=O)N[C@@H](Cc1c[nH]cn1)C(=O)N[C@H](C(=O)N[C@@H](CC(=O)O)C(=O)N[C@H](C)C(=O)N[C@@H](Cc1ccc(O)cc1)C(=O)N[C@@H](Cc1ccccc1)C(=O)N[C@@H](CCC(=O)O)C(=O)N[C@@H](CCCNC(=N)N)C(=O)N[C@@H](CC(C)C)C(=O)NC(C)(C)C(=O)N[C@@H](C)C(=O)N[C@@H](CCCCN)C(=O)N[C@@H](CC(C)C)C(=O)N[C@@H](CSC1CC(=O)N(CC)C1=O)C(N)=O)C(C)(C)C)C(C)C (some centres unmarked) [JBT00002546, Hex-FQSKpSVH-Tle-DaYFERL-Aib-AKLC(NEM)-NH2] (Hexanoyl-FQSK[dP]SVH[Tle]D[dA]YFERL[Aib]AKLC(Succinimide(1-Et,3-yl))-NH2)",24 h Human Plasma Stability | Mean Remaining [%],[3],87.66%
same,24 h Mouse Plasma Stability | Mean Remaining [%],[3],72.98%
Ac-FQSKpNVHVDGYFERL-Aib-AKLC(ME-50MA)-NH2 [JBT00002325],24 h Human Plasma Stability | Mean Remaining [%],[1],67.60%
same,24 h Mouse Plasma Stability | Mean Remaining [%],[1],44.70%
Ac-KKLHVSKRSKEMALARLYYKTSKK-NH2 (SEQ ID NO: 2307) [JBT0236],Progress Curves of Inhibition of FXa | % Inhibit ([…]),[4],0%
"CCCCCC(=O)N[C@@H](Cc1ccccc1)C(=O)N[C@@H](CCC(N)=O)C(=O)N[C@@H](CO)C(=O)N[C@@H](CCCCN)C(=O)N1CCC[C@@H]1C(=O)N[C@@H](CO)C(=O)N[C@H](C(=O)N[C@@H](Cc1c[nH]cn1)C(=O)N[C@H](C(=O)N[C@@H](CC(=O)O)C(=O)N[C@H](C)C(=O)N[C@@H](Cc1ccc(O)cc1)C(=O)N[C@@H](Cc1ccccc1)C(=O)N[C@@H](CCC(=O)O)C(=O)N[C@@H](CCCNC(=N)N)C(=O)N[C@@H](CC(C)C)C(=O)NC(C)(C)C(=O)N[C@@H](C)C(=O)N[C@@H](CCCCN)C(=O)N[C@@H](CC(C)C)C(N)=O)C(C)(C)C)C(C)C [JBT00002548, Hex-FQSKpSVH-Tle-DaYFERL-Aib-AKL-NH2]",24 h Human Plasma Stability | Mean Remaining [%],[3],98.85%
same,24 h Mouse Plasma Stability | Mean Remaining [%],[3],50.25%
Ac-KKHVSKRSKEMALARLYYKTSKK-NH2 (SEQ ID NO: 2302) [JBT0231],Progress Curves of Inhibition of FXa | % Inhibit ([…]),[4],0%
"CCCCCC(=O)N[C@@H](Cc1ccccc1)C(=O)N[C@@H](CCC(N)=O)C(=O)N[C@@H](CO)C(=O)N[C@@H](CCCCN)C(=O)N1CCC[C@@H]1C(=O)N[C@@H](CSCNC(C)=O)C(=O)N[C@H](C(=O)N[C@@H](Cc1c[nH]cn1)C(=O)N[C@H](C(=O)N[C@@H](CC(=O)O)C(=O)N[C@H](C)C(=O)N[C@@H](Cc1ccc(O)cc1)C(=O)N[C@@H](Cc1ccccc1)C(=O)N[C@@H](CCC(=O)O)C(=O)N[C@@H](CCCNC(=N)N)C(=O)N[C@@H](CC(C)C)C(=O)NC(C)(C)C(=O)N[C@@H](C)C(=O)N[C@@H](CCCCN)C(=O)N[C@@H](CC(C)C)C(N)=O)C(C)(C)C)C(C)C [JBT2528, Hex-FQSKp-C(Acm)-VH-Tle-DaYFERL-Aib-AKL-NH2] (Hexanoyl-FQSK[dP]C(Acm)VH[Tle]D[dA]YFERL[Aib]AKL-NH2)",EC50,[2],11 nM
(Hex-FQSKp-Cys(Acm)-VH-Tle-DaYFERL-Aib-AKLC-NH2)- Mal-mPEG23 [JBT00002544],24 h Human Plasma Stability | Mean Remaining [%],[3],54.00%
same,24 h Mouse Plasma Stability | Mean Remaining [%],[3],46.20%
"CCCCCCCCCCCCCCCC(=O)NCCCOCCOCCOCCCNC(=O)CCC(=O)NCCCC[C@H](NC(=O)[C@H](CC(C)C)NC(=O)[C@H](CCCCN)NC(=O)[C@H](C)NC(=O)C(C)(C)NC(=O)[C@H](CC(C)C)NC(=O)[C@H](CCCNC(=N)N)NC(=O)[C@H](CCC(=O)O)NC(=O)[C@H](Cc1ccccc1)NC(=O)[C@H](Cc1ccc(O)cc1)NC(=O)[C@@H](C)NC(=O)[C@H](CC(=O)O)NC(=O)[C@@H](NC(=O)[C@H](Cc1c[nH]cn1)NC(=O)[C@@H](NC(=O)[C@H](CSCNC(C)=O)NC(=O)[C@H]1CCCN1C(=O)[C@H](CCCCN)NC(=O)[C@H](CO)NC(=O)[C@H](CCC(N)=O)NC(=O)[C@H](Cc1ccccc1)NC(=O)CCCCC)C(C)C)C(C)(C)C)C(N)=O [JBT00002532, Hex-FQSKp-Cys(Acm)-VH-Tle-DaYFERL-Aib-AKLK(Ttds- Palm)--NH2] (Hexanoyl-FQSK[dP]C(Acm)VH[Tle]D[dA]YFERL[Aib]AKLK([Suc-TTDA(Palmitoyl)])-NH2)",IC50,[5],36.7 nM
same,24 h Human Plasma Stability | Mean Remaining [%],[6],107.70%
same,24 h Mouse Plasma Stability | Mean Remaining [%],[6],67.50%
Ac-KKVQLHVSKRSKEMALARLYYKTSKK- NH2 (SEQ ID NO: 2301) (Ac-KKVQLHVSKRSKEMALARLYYKTSKK-NH2) [JBT0230],Progress Curves of Inhibition of FXa | % Inhibit ([…]),[4],0%
Ac-FQSKpNVHVDGYFERL-Aib-AKLC(ME-200MA0B)-NH2 [JBT00002327],24 h Human Plasma Stability | Mean Remaining [%],[7],76.50%
same,24 h Mouse Plasma Stability | Mean Remaining [%],[7],65.50%
CSCC[C@@H]1NC(=O)[C@H](C)NC(=O)[C@@H](NC(=O)[C@H](Cc2c[nH]cn2)NC(=O)[C@H](Cc2c[nH]c3ccccc23)NC(=O)[C@H](CCCCN)NC(=O)[C@H](Cc2ccc(O)cc2)NC(=O)[C@H](Cc2ccc(O)cc2)NC(=O)[C@H](CO)NC(C)=O)CSSC[C@@H](C(=O)N[C@H](C(=O)N[C@@H](Cc2c[nH]c3ccccc23)C(=O)N[C@H](C(=O)N[C@@H](CCCCN)C(=O)N[C@@H](Cc2ccccc2)C(N)=O)C(C)C)C(C)C)NC(=O)[C@H]([C@@H](C)O)NC(=O)[C@H](CCSC)NC(=O)[C@H]([C@@H](C)O)NC(=O)CNC(=O)[C@H](CCCCN)NC(=O)[C@H](CCSC)NC(=O)[C@H](CC(=O)O)NC(=O)[C@H](CCCNC(=N)N)NC1=O [JBT1837],EC50,[2],4 nM
same,coagulation parameters,[2],corrected blood coagulation parameters in FVIII-inhibited blood
Ac-FQSKpNVHVDGYFERL-Aib-AKLC(ME-300MA)-NH2 [JBT00002328],24 h Human Plasma Stability | Mean Remaining [%],[7],68.40%
same,24 h Mouse Plasma Stability | Mean Remaining [%],[7],51.00%
